Laboratory results taken from ChEMBL document CHEMBL3797155, “The 5-aromatic hydantoin-3-acetate derivatives as inhibitors of the tumour multidrug resistance efflux pump P-glycoprotein (ABCB1): Synthesis, crystallographic and biological studies” (Bioorg Med Chem, 2016).

Key:
Type in all cases: cell-based
[1] = molecular target: T1, ATP-dependent translocase ABCB1 (Homo sapiens, UniProt P08183); test: Inhibition of human MDR1 expressed in mouse L5178 cells assessed as rhodamine-123 accumulation measured as fluorescence activity ratio at 2 uM after 20 mins by flow cytometry relative to control; details: l5178, 20 min
[2] = molecular target: T1, ATP-dependent translocase ABCB1; test: Inhibition of human MDR1 expressed in mouse L5178 cells assessed as rhodamine-123 accumulation measured as fluorescence activity ratio at 20 uM after 20 mins by flow cytometry relative to control; details: l5178, 20 min
[3] = Cytotoxicity against sensitive mouse L5178 cells after 24 hrs by MTT assay; details: l5178, 24 h
[4] = Cytotoxicity against multidrug resistant mouse L5178 cells after 24 hrs by MTT assay; details: l5178, 24 h

T1 sequence (P08183 whole entry): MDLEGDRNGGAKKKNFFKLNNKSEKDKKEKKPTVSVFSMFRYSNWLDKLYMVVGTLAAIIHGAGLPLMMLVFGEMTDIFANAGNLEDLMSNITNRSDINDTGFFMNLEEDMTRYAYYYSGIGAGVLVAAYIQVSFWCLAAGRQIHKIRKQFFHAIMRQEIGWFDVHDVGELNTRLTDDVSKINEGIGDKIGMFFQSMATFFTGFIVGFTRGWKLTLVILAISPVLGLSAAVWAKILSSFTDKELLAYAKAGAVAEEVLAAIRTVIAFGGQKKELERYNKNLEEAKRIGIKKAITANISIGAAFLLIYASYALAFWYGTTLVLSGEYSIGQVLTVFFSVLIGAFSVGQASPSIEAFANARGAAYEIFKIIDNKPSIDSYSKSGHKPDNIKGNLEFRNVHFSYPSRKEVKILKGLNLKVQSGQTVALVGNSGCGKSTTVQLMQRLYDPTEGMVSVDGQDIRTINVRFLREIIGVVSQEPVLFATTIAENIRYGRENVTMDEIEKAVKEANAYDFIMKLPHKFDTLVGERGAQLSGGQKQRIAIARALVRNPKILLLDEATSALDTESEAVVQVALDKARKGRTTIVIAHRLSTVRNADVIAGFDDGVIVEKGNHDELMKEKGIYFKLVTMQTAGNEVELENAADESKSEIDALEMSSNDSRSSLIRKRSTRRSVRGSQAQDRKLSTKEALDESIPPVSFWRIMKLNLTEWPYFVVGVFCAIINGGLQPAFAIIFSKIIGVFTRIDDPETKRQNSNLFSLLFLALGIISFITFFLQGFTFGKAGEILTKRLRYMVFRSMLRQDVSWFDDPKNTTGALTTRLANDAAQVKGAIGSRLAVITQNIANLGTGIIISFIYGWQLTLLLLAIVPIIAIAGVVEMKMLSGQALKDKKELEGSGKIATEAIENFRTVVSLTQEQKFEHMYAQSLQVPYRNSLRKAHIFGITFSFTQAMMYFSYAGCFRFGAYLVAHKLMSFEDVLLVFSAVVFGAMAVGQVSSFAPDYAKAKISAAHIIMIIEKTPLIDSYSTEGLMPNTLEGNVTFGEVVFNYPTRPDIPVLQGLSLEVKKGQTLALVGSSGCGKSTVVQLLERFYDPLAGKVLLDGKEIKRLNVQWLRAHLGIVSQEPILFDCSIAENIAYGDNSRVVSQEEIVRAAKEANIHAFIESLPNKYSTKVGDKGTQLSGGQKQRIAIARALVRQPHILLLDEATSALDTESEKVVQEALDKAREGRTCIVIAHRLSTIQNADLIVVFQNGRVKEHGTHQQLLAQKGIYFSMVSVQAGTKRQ

SMILES | Ratio [1] | Ratio [2] | Activity [3] [µM] | Activity [4] [µM]
COC(=O)CN1C(=O)N(CCCCN2CCN(c3ccccc3)CC2)C(c2ccccc2)(c2ccccc2)C1=O | 77.15 | 99.82 | 13 | 26
COC(=O)CN1C(=O)N(CCCCN2CCN(C(=O)c3ccco3)CC2)C2(C1=O)c1ccccc1-c1ccccc12 | 1.86 | 24.89 | 59 | 63
COc1ccccc1N1CCN(CCCCN2C(=O)N(CC(=O)O)C(=O)C2(c2ccccc2)c2ccccc2)CC1 | 1 | 2.04 | > 100 | > 100
COC(=O)CN1C(=O)N(CCCCN2CCN(c3ccccc3)CC2)C2(C1=O)c1ccccc1-c1ccccc12 | 21.61 | 70.19 | 53 | > 100
COC(=O)CN1C(=O)N(CCCN2CCN(c3ccccc3)CC2)C(c2ccccc2)(c2ccccc2)C1=O | 89.34 | 116.27 | 40 | > 100
COc1ccc(CCN(C)CCCC(C#N)(c2ccc(OC)c(OC)c2)C(C)C)cc1OC (centres undefined) [VERAPAMIL] | – | 17.59 | – | –
COC(=O)CN1C(=O)N(CCCCN2CCN(c3ccccc3F)CC2)C2(C1=O)c1ccccc1-c1ccccc12 | 35.38 | 72.04 | 58 | 84
COC(=O)CN1C(=O)N(CCCCN2CCN(c3ccccc3F)CC2)C(c2ccccc2)(c2ccccc2)C1=O | 102.74 | 99.09 | > 100 | > 100
COC(=O)CN1C(=O)N(CCCCN2CCN(c3ccc(F)cc3)CC2)C2(C1=O)c1ccccc1-c1ccccc12 | 19.4 | 71.11 | 40 | 56
O=C(O)CN1C(=O)N(CCCCN2CCN(C(=O)c3ccco3)CC2)C2(C1=O)c1ccccc1-c1ccccc12 | 0.68 | 0.69 | > 100 | > 100
COc1ccccc1N1CCN(CC(O)CN2C(=O)N(CC(=O)O)C(=O)C2(c2ccccc2)c2ccccc2)CC1 (centres undefined) | 0.84 | 0.86 | > 100 | > 100
COC(=O)CN1C(=O)N(CCCCN2CCN(c3cccc(Cl)c3Cl)CC2)C(c2ccccc2)(c2ccccc2)C1=O | 132.85 | 98.11 | 18 | 40
COC(=O)CN1C(=O)N(CC(O)CN2CCN(c3ccccc3)CC2)C(c2ccccc2)(c2ccccc2)C1=O (centres undefined) | 72.64 | 90.43 | 33 | 67
